This is an account of results in patent US5798092A, “Derivatized DTPA complexes pharmaceutical agents containing these compounds, their use, and processes for their production” (Schering Aktiengesellschaft, priority 1989, dated 1998).

A short description of data set [1]: T1 relaxation (relaxivity) in plasma. Format: physicochemical. An excerpt:
(§1) T1 relaxation (1/mmol·sec) is
(§2) The T1 relaxation (1/mmol·sec) is
(§3) The T1 relaxation (1/mmol·sec) amounts to
(§4) The T1 relaxation (1mmol·sec) is […]

The nature of data set [2]: T1 relaxation (relaxivity) in water. Format: physicochemical.
Description: as §1, §2, §3, §4

In data set [3] the test system is rats. The data set can be described thus: in vivo MRI in rats, T1-weighted spin echo, liver/stomach/osteogenic sarcoma. Further details: species or system rat (female, Lew/Mol). Particulars: 0.1 mmol Gd/kg i.v.; for enhancement of the stomach: ranking among the three compounds. An excerpt: The test animals were female rats of the strain Lew/Mol weighing 160-180 g. Prior to imaging, the animals were anesthetized ("Rompun"+"Ketavet") and provided with a catheter in the caudel vein to administer the contrast medium. Imaging took place in an MRI experimental device by General Electric (field strength 2 tesla). First of all, the images (7, 9, 11) were made without contrast medium with a T1 -weighted spin echo sequence (TR=400 msec, TE=20 msec, axial section plane, layer thickness 3 mm). The liver appears in each case with the normal signal intensity; the stomach is darker in tendency than the liver. […] This is due to feed residues, the feed containing manganese in relatively high concentrations (at the time of the test, the animals had been fasting for 6 hours). Animal 3 had been implanted with an osteogenic sarcoma three weeks previously; this sarcoma was of equal contrast in the blank image and could not be defined. The administration of contrast medium took place via the venous catheter with a dose of 0.1 mmol Gd/kg (concentration of the solutions 0.05 mmol Gd/ml in 0.9% NaCl) for all 3 compounds.

The subject of data set [4] is rats. Kind of data set: in vivo NMR imaging in rat with Brown Pearce tumor (spin echo, 2 tesla). Details: species or system rat (male hairless, Lew/Mol). The following applies: 0.06 mmol/kg i.v. An excerpt: Spin echo scans were made with the NMR tomograph (CSI 2 T) at 2 tesla (TR time of 400 ms and TE time of 20 ms).
The contrast medium was administrated intravenously into a caudal vein of a male hairless rat (Lew/Mol) weighing 190 g, in a dose of 0.06 mmol/kg.

Data set [5] deals with rats. The following applies: at this point in time after administration; no own data shown; cited from earlier work.

Turning to `CCCCOc1ccc(CC(CN(CCN(CC(=O)[O-])CC(=O)[O-])CC(=O)[O-])N(CC(=O)[O-])CC(=O)[O-])cc1.[Gd+3].[Na+].[Na+]` (centres unmarked) [Example 9(c), Disodium Salt of the Gadolinium Complex of 3,6,9-Triaza-3,6,9-tris(carboxymethyl)-4-(4-butoxybenzyl)undecanedioic Acid], the T1 relaxation in data set [1] (unit printed without slash) is on record as 14.20±0.98 1mmol·sec; in data set [2] (unit printed without slash) it was 5.80±0.26 1mmol·sec. Moreover, in data set [3] (after 60 minutes), the “enhancement of the liver” value was “marked enhancement of the liver”.
As for “Gadolinium Complex of 3,6,9-Triaza-3,6,9-tris-(carboxymethyl)-5-(4-methoxybenzyl)undecanedioic Acid [Example 2(c)]”, the results for the T1 relaxation in data set [1] and in data set [2] were 6.61 ± 0.18 mmol⁻¹ s⁻¹ and 4.17 ± 0.14 mmol⁻¹ s⁻¹, respectively.
On to “Gadolinium Complex of 3,6,9-Triaza-3,6,9-tris-(carboxymethyl)-4-benzylundecanedioic Acid [Example 4(d)]”, for which the T1 relaxation in data set [1] was found to be 6.89 ± 0.17 mmol⁻¹ s⁻¹; in data set [2] it was 4.54 ± 0.13 mmol⁻¹ s⁻¹.
In the case of `CCOc1ccc(CC(CN(CCN(CC(=O)[O-])CC(=O)[O-])CC(=O)[O-])N(CC(=O)[O-])CC(=O)[O-])cc1.[Gd+3].[Na+].[Na+]` (centres unmarked) [Example 8(c), Disodium Salt of the Gadolinium Complex of 3,6,9-Triaza-3,6,9-tris(carboxymethyl)-4-(4-ethoxybenzyl)undecanedioic Acid], the figures for the T1 relaxation in data set [1] and in data set [2] were 8.69 ± 0.53 mmol⁻¹ s⁻¹ and 5.33 ± 0.13 mmol⁻¹ s⁻¹, respectively. Besides, the “enhancement of the liver” value in data set [3] (after 90 minutes) is given as “marked enhancement of the liver”. Moreover, the “enhancement of the stomach” value in data set [3] is listed as “least”.
On to “Gadolinium Complex of 3,6,9-Triaza-3,6,9-tris-(carboxymethyl)-4-(4-carboxymethoxybenzyl)-undecanedioic Acid [Example 6(c)]”, for which the T1 relaxation was found to be 7.10 ± 0.08 mmol⁻¹ s⁻¹ in data set [1] and 5.00 ± 0.01 mmol⁻¹ s⁻¹ in data set [2].
Take `COc1ccc(CC(CN(CCN(CC(=O)[O-])CC(=O)[O-])CC(=O)[O-])N(CC(=O)[O-])CC(=O)[O-])cc1.[Gd+3].[Na+].[Na+]` (centres unmarked) [Example 1(c) disodium salt, Gadolinium Complex of 3,6,9-Triaza-3,6,9-tris-(carboxymethyl)-4-(4-methoxybenzyl)undecanedioic Acid]: the T1 relaxation in data set [1] is 6.89 ± 0.17 mmol⁻¹ s⁻¹. This compound came in with a T1 relaxation in data set [2] of 4.54 ± 0.13 mmol⁻¹ s⁻¹. Besides, the “increase in contrast in the stomach” value in data set [4] (45 minutes after injection) is reported as “strong increase in contrast”. For the same compound, in data set [4] (60 minutes after injection), the “contrasting of the intestine” value is “contrasting of the intestine can likewise be observed”, the “contrasting of the renal pelvis” value is “striking”, the “visualization of the stomach” value is given as “good visualization” and the “visualization of the urinary bladder” value is reported as “good visualization”. Further, the “visualization of the tumor” value in data set [4] (60 minutes after injection, Brown Pearce tumor in the thigh) is on record as “good visualization”. For the same compound, the “contrasting of the renal pelvis” value in data set [4] (65 minutes after injection, somewhat different layer) is “even more improved”. Also, in data set [4] (180 minutes after injection, axial scan), the “contrast enhancement in the zone of the liver” value was “contrast enhancement is likewise clearly recognizable”. The “contrast enhancement in the urinary bladder” value in data set [4] (one minute after administration) is listed as “first enhancement is already apparent”.
Regarding `O=C([O-])CN(CCN(CC(=O)[O-])CC(Cc1ccc(OCc2ccccc2)cc1)N(CC(=O)[O-])CC(=O)[O-])CC(=O)[O-].[Gd+3].[Na+].[Na+]` (centres unmarked) [Example 10(c), Disodium Salt of the Gadolinium Complex of 3,6,9-Triaza-3,6,9-tris(carboxymethyl)-4-(4-benzyloxybenzyl)undecanedioic Acid], the results for the T1 relaxation in data set [1] and in data set [2] were 16.35 ± 1.01 mmol⁻¹ s⁻¹ and 5.81 ± 0.11 mmol⁻¹ s⁻¹, respectively. Also, the “enhancement of the liver” value in data set [3] (after 60 minutes) is recorded as “marked enhancement of the liver”. Besides, the “visibility of the tumor” value in data set [3] (animal 3, osteogenic sarcoma implanted three weeks previously, 60 minutes) is recorded as “clearly visible”. Besides, the “absorption of the contrast medium by the tumor” value in data set [3] (animal 3, osteogenic sarcoma, 60 minutes) is recorded as “not absorbed the contrast medium at all, or only to a lesser proportion”. For the same compound, the “enhancement of the stomach” value in data set [3] was “most strongly”.
As to “Gadolinium Complex of 3,6,9-Triaza-3,6,9-tris-(carboxymethyl)-4-[4-(4-methoxybenzyloxy)benzyl]-undecanedioic Acid [Example 3(c)]”, the T1 relaxation amounted to 6.99 ± 0.13 mmol⁻¹ s⁻¹ in data set [1] and 4.23 ± 0.16 mmol⁻¹ s⁻¹ in data set [2].
For the compound `CNC[C@H](O)[C@@H](O)[C@H](O)[C@H](O)CO.CNC[C@H](O)[C@@H](O)[C@H](O)[C@H](O)CO.O=C([O-])CN(CCN(CC(=O)[O-])CC(=O)O)CCN(CC(=O)[O-])CC(=O)O.[Gd+3]` [Magnevist, dimeglumine salt of Gd DTPA [gadolinium(III)complex of diethylenetriaminepentaacetic acid]], in data set [5], the “enhancement of the liver (comparison)” value was “cannot be observed”.
“Gadolinium Complex of 3,6,9-Triaza-3,6,9-tris-(carboxymethyl)-4-benzyloxymethylundecanedioic Acid [Example 5(c)]”: the T1 relaxation in data set [1] came out at 6.31 ± 0.15 mmol⁻¹ s⁻¹; in data set [2], 4.39 ± 0.12 mmol⁻¹ s⁻¹.
